Active and inactive are the calls of the source. How the calls were made is not given here.
Molecular target: Coagulation factor XI (Homo sapiens) (UniProt P03951)
Test: human FXIa inhibitor potency, dose response, biochemical (AID 679)
Conditions: purified human factor XIa enzymatic activity assay

Coagulation factor XI (Homo sapiens), sequence (P03951 19-387 limits assumed): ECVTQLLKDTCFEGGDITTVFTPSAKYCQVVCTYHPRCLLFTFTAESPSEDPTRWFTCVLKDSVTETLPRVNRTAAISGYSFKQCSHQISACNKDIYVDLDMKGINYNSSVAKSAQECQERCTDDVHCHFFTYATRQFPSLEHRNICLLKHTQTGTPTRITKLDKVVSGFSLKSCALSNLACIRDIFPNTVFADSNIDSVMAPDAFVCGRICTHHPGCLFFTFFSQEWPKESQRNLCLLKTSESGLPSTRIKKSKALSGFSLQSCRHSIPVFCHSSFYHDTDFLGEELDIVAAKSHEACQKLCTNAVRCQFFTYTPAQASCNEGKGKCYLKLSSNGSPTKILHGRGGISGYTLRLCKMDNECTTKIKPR
Coagulation factor XI (Homo sapiens), sequence (P03951 388-625 limits assumed): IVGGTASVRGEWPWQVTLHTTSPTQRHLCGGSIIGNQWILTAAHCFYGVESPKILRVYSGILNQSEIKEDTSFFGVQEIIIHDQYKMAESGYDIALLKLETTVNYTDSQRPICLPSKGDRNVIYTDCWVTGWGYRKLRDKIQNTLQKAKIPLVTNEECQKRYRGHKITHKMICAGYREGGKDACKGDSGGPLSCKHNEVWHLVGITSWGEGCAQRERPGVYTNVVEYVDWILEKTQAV

| Structure (SMILES) | IC50 |
| --- | --- |
| CC1=C(C(=O)OC(C)C)C(c2coc3ccccc3c2=O)C2=C(CCCC2=O)N1 (stereo not drawn) | > 50 µM (inactive) |
| COC(=O)c1ccc(NC(=O)CC2C(=O)N(c3ccc(C)cc3)C(=O)N2CC(C)C)cc1 (stereo not drawn) | > 50 µM (inactive) |
| N#Cc1c(N)nc2c3c(sc(=N)c2c1N)NC(=O)CC3c1ccccc1Cl (stereo not drawn) | > 50 µM (inactive) |
